Measurements taken from patent publication US20250114374A1, “BCL-2 INHIBITORS” (Newave Pharmaceutical Inc., priority 2021, published 2025).
Where a name gives a salt, the structure may show the parent alone. Read-outs that look alike come from different tables or passages of the source.

Test system: RS4; 11 with G101V mutation
Assay: In vitro anti-proliferation assay (ATPlite luminescence) in BCL-2-dependent ALL cell line RS4;11 with G101V mutation
Type: cell-based
Conditions: read-out: RS411-G101V IC50
Method in brief: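 RS4;11 G101V cells at about 1×10^4 per well were exposed to a range of compound concentrations for about 72 h in medium with 10% FBS. Cellular ATP was measured by ATPlite luminescence after lysis, and IC50 was derived from the dose-response.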

[1] = cellular anti-proliferative IC50, about 72 hours, medium with 10% FBS, ATPlite

| IC50 (Homo sapiens, RS4-11, 72 h) | Structure (SMILES) | IC50 [1] |
| --- | --- | --- |
| – | COc1nc(CN2CCN(C3CC4(CCN(c5ccc(C(=O)NS(=O)(=O)c6ccc(NCC7CCC(C)(O)CC7)c([N+](=O)[O-])c6)c(N6c7cc8cc[nH]c8nc7O[C@H]7COCC[C@@H]76)c5)CC4)C3)[C@@H](c3ccccc3OC(C)C)C2)cc2c1OCCC2(C)C (stereo partly drawn) [Example 110, 2-[(3R,8S)-2,5-dioxa-9,15,17-triazatetracyclo[8.7.0.0^{3,8}.0^{12,16}]heptadeca-1(10),11,13,16-tetraen-9-yl]-4-{2-[(2S)-2-(2-isopropoxyphenyl)-4-({8-methoxy-4,4-dimethyl-2H,3H-pyrano[2,3-c]pyridin-6-yl}methyl)piperazin-1-yl]-7-azaspiro[3.5]nonan-7-yl}-N-[3-nitro-4-({[(1r,4r)-4-hydroxy-4-methylcyclohexyl]methyl}amino)benzenesulfonyl]benzamide hydrochloride] | 23.8 nM |
| 328 nM | Cc1ccccc1[C@@H]1CN([C@H]2CCOc3c(F)cc(F)cc32)CCN1C1CC2(CCN(c3ccc(C(=O)NS(=O)(=O)c4cc5c(c([N+](=O)[O-])c4)N[C@H](C4CCOCC4)CO5)c(N4c5cc6cc[nH]c6nc5O[C@H]5COCC[C@@H]54)c3)CC2)C1 [Example 197, 4-(2-((R)-4-((S)-6,8-difluorochroman-4-yl)-2-(o-tolyl)piperazin-1-yl)-7-azaspiro[3.5]nonan-7-yl)-N-(((R)-5-nitro-3-(tetrahydro-2H-pyran-4-yl)-3,4-dihydro-2H-benzo[b][1,4]oxazin-7-yl)sulfonyl)-2-((5aS,9aR)-6,7,9,9a-tetrahydro-1H-pyrano[3,4-b]pyrrolo[3′,2′:5,6]pyrido[3,2-e][1,4]oxazin-5(5aH)-yl)benzamide] | – |
| – | Cc1ccccc1[C@@H]1CN(C2CCC(N3CCOC[C@@H]3C)CC2)CCN1C1CC2(CCN(c3ccc(C(=O)NS(=O)(=O)c4cc5c(c([N+](=O)[O-])c4)N[C@H](C4CCOCC4)CO5)c(N4c5cc6cc[nH]c6nc5O[C@H]5COCC[C@@H]54)c3)CC2)C1 (stereo partly drawn) [Example 203, 4-(2-((R)-4-((1S,4R)-4-((S)-3-methylmorpholino)cyclohexyl)-2-(o-tolyl)piperazin-1-yl)-7-azaspiro[3.5]nonan-7-yl)-N-(((R)-5-nitro-3-(tetrahydro-2H-pyran-4-yl)-3,4-dihydro-2H-benzo[b][1,4]oxazin-7-yl)sulfonyl)-2-((5aS,9aR)-6,7,9,9a-tetrahydro-1H-pyrano[3,4-b]pyrrolo[3′,2′:5,6]pyrido[3,2-e][1,4]oxazin-5(5aH)-yl)benzamide] | 68.6 nM |
| – | COc1cc(CN2CCN(C3CC4(CCN(c5ccc(C(=O)NS(=O)(=O)c6ccc(NCC7CCOCC7)c([N+](=O)[O-])c6)c(N6c7cc8cc[nH]c8nc7O[C@H]7COCC[C@@H]76)c5)CC4)C3)[C@@H](c3ccccc3OC(C)C)C2)cnc1N1CCOCC1 [Example 133, 2-[(3R,8S)-2,5-dioxa-9,15,17-triazatetracyclo[8.7.0.0^{3,8}.0^{12,16}]heptadeca-1(10),11,13,16-tetraen-9-yl]-4-{2-[(2S)-2-(2-isopropoxyphenyl)-4-{[5-methoxy-6-(morpholin-4-yl)pyridin-3-yl]methyl}piperazin-1-yl]-7-azaspiro[3.5]nonan-7-yl}-N-{3-nitro-4-[(oxan-4-ylmethyl)amino]benzenesulfonyl}benzamide] | 32.4 nM |
| – | CC(C)c1ccccc1[C@@H]1CN(Cc2ccc(F)c(F)c2)CCN1C1CC2(CCN(c3ccc(C(=O)NS(=O)(=O)c4cc5c(c([N+](=O)[O-])c4)N[C@H](C4CCOCC4)CO5)c(N4c5cc6cc[nH]c6nc5O[C@H]5COCC[C@@H]54)c3)CC2)C1 [Example 180, 4-{2-[(2R)-4-[(3,4-difluorophenyl)methyl]-2-(2-isopropylphenyl)piperazin-1-yl]-7-azaspiro[3.5]nonan-7-yl}-2-[(3R,8S)-2,5-dioxa-9,15,17-triazatetracyclo[8.7.0.0^{3,8}.0^{12,16}]heptadeca-1(10),11,13,16-tetraen-9-yl]-N-[(3R)-5-nitro-3-(oxan-4-yl)-3,4-dihydro-2H-1,4-benzoxazin-7-ylsulfonyl]benzamide] | 7.5 nM |
